Measurements as given in PMC6389993, “Quercetin and its metabolite isorhamnetin promote glucose uptake through different signalling pathways in myotubes” (Scientific Reports, 2019).

Assays:
[1] = system: JAK3; assay: Phosphorylation of JAK3 in L6 myotubes (western blot); format: cell-based, rat; conditions: physiological concentration range (0.1–10 nM), 15 min
Experimental: (§1) For in vitro cell culture experiments, after serum starvation for 18 h, myotubes were treated with various concentrations of quercetin or isorhamnetin (0.1–10 nM) for 15 min; DMSO (final 0.1%) was used as a vehicle control. As positive controls, 100 nM insulin, 1 mM AICAR, 10 nM leptin, or 100 ng/mL IL-15 were used for insulin, AMPK, JAK2/STAT, or JAK3/STAT signalling pathways, respectively. Cells were treated with insulin or AICAR for 15 min, leptin for 60 min, or IL-15 for 24 h. Whole protein and plasma membrane fractions were prepared from myotubes, as previously described. For in vivo experiment, plasma membrane fraction and tissue lysate of soleus muscle were prepared.
(§2) Translocation of GLUT4 to the plasma membrane, as well as expression and phosphorylation levels of GLUT4-related regulators were estimated by western blot analysis. Briefly, equal amounts of proteins were separated by sodium dodecyl sulfate-polyacrylamide gel electrophoresis (SDS-PAGE). […] Specific immune complexes were developed using ImmunoStar® LD and detected with an ATTO Light-Capture II Western Blotting Detection System. Individual band density was calculated by ImageJ and normalized to the control.

[2] = system: STAT3; assay: Phosphorylation of STAT3 in L6 myotubes (western blot); format: cell-based, rat; conditions: 10 nM, 15 min
Experimental: as §1, §2

[3] = system: STAT5; assay: Phosphorylation of STAT5 in L6 myotubes (western blot); format: cell-based, rat; conditions: 1 nM, 15 min
Experimental: as §1, §2

[4] = system: ACC; assay: Phosphorylation of ACC in L6 myotubes (western blot); format: cell-based, rat; conditions: 0.1 nM or 1 nM, 15 min
Experimental: as §1, §2

[5] = cited from earlier work
[6] = system: PKCζ/λ; assay: Phosphorylation of PKCζ/λ in L6 myotubes; format: cell-based, rat; conditions: 10 nM, data not shown

Row | SMILES | JAK3 phosphorylation [1] | phosphorylation of STAT3 [2] | phosphorylation of STAT5 [3] | phosphorylation of ACC [4] | basal concentrations in the blood ([5]; humans, after consumption of 80–100 mg of quercetin equivalent) [nM] | absorption rate ([5]; in humans) | phosphorylation of PKCζ/λ [6]
1 | COc1cc(-c2oc3cc(O)cc(O)c3c(=O)c2O)ccc1O [isorhamnetin, 3′-O-methyl quercetin] | effectively promoted | increased | increased | – | – | – | –
2 | O=c1c(O)c(-c2ccc(O)c(O)c2)oc2cc(O)cc(O)c12 [quercetin, 3,3′,4′,5,7-pentahydroxy flavone] | – | – | – | phosphorylation was increased | 300 to 750 | 9–20% | phosphorylated
